Assay results taken from the supplement of paper PMC10307832.

Key:
Experiment in all cases: relative viability (nuclei count vs DMSO), 5 days (fraction); higher = more cells survive
CX-5461 + Bortezomib = compound: Cc1cnc(CNC(=O)c2c(=O)c3ccc(N4CCCN(C)CC4)nc3n3c2sc2ccccc23)cn1 [CX-5461] + CC(C)C[C@H](NC(=O)[C@H](Cc1ccccc1)NC(=O)c1cnccn1)B(O)O [Bortezomib] (partner 0.002 µM)
In short: (§1)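 Relative viability equals treated-well nuclei counts divided by vehicle-well nuclei counts. Counts came from 4× images of lung cancer cell lines grown in 1536-well plates for 5 days after pin-tool dosing on the day after seeding. Dosing used one drug alone or a fixed anchor-drug dose plus five library-drug doses (not always all listed) in √10 steps, and values are medians of duplicate plates.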

CX-5461 + Vorinostat = compound: Cc1cnc(CNC(=O)c2c(=O)c3ccc(N4CCCN(C)CC4)nc3n3c2sc2ccccc23)cn1 [CX-5461] + O=C(CCCCCCC(=O)Nc1ccccc1)NO [Vorinostat] (partner 1 µM)
In short: as §1

IMD-0354 + Phenformin = compound: O=C(Nc1cc(C(F)(F)F)cc(C(F)(F)F)c1)c1cc(Cl)ccc1O [IMD-0354] + N=C(N)NC(=N)NCCc1ccccc1 [Phenformin] (partner 250 µM)
In short: as §1

IMD-0354 + AZD7762 = compound: O=C(Nc1cc(C(F)(F)F)cc(C(F)(F)F)c1)c1cc(Cl)ccc1O [IMD-0354] + NC(=O)Nc1cc(-c2cccc(F)c2)sc1C(=O)N[C@H]1CCCNC1 [AZD7762] (partner 0.2 µM)
In short: as §1

Cell Line | relative viability (CX-5461 + Bortezomib; first compound 0.01 µM) | relative viability (CX-5461 + Bortezomib; first compound 0.03162 µM) | relative viability (CX-5461 + Bortezomib; first compound 0.1 µM) | relative viability (CX-5461 + Bortezomib; first compound 0.3162 µM) | relative viability (CX-5461 + Bortezomib; first compound 1 µM) | relative viability (CX-5461 + Vorinostat; first compound 0.01 µM) | relative viability (CX-5461 + Vorinostat; first compound 0.03162 µM) | relative viability (CX-5461 + Vorinostat; first compound 0.1 µM) | relative viability (CX-5461 + Vorinostat; first compound 0.3162 µM) | relative viability (CX-5461 + Vorinostat; first compound 1 µM) | relative viability (IMD-0354 + Phenformin; first compound 0.04 µM) | relative viability (IMD-0354 + Phenformin; first compound 0.1265 µM) | relative viability (IMD-0354 + Phenformin; first compound 0.4 µM) | relative viability (IMD-0354 + Phenformin; first compound 1.265 µM) | relative viability (IMD-0354 + Phenformin; first compound 4 µM) | relative viability (IMD-0354 + AZD7762; first compound 0.04 µM) | relative viability (IMD-0354 + AZD7762; first compound 0.1265 µM) | relative viability (IMD-0354 + AZD7762; first compound 0.4 µM) | relative viability (IMD-0354 + AZD7762; first compound 1.265 µM) | relative viability (IMD-0354 + AZD7762; first compound 4 µM)
NCI-H650 | 0.887 | 0.832 | 0.739 | 0.594 | 0.483 | 0.462 | 0.294 | 0.635 | 0.399 | 0.312 | 0.448 | 0.451 | 0.371 | 0.234 | 0.2 | 0.926 | 1.01 | 0.822 | 0.566 | 0.174
NCI-H1734 | 0.948 | 1.18 | 0.838 | 0.751 | 0.45 | 0.83 | 0.908 | 0.744 | 0.278 | 0.35 | 0.393 | 0.284 | 0.257 | 0.165 | 0.129 | 0.573 | 0.565 | 0.417 | 0.198 | 0.152
LXF-289 | 0.99 | 1.06 | 0.976 | 1.03 | 0.66 | 0.803 | 0.744 | 0.635 |  | 0.544 | 0.548 | 0.504 | 0.329 | 0.124 | 0.0658 | 1.07 | 1.09 | 0.866 | 0.345 | 0.133
H3255 | 0.878 | 0.791 | 0.775 | 0.464 | 0.789 | 0.767 | 0.771 | 0.9 |  | 0.734 | 0.338 | 0.364 | 0.345 | 0.288 | 0.332 | 0.812 | 1 | 0.573 | 0.385 | 0.274
201T | 1.16 | 1.15 | 1.08 | 1.14 | 1.05 | 1.07 | 1.04 | 1.02 | 0.559 | 0.976 | 0.524 | 0.465 | 0.322 | 0.286 | 0.303 | 0.511 | 0.616 | 0.392 | 0.657 | 0.214
NCI-H2126 | 1.12 | 1.15 | 1.15 | 1.09 | 1.06 | 0.725 | 0.861 | 0.79 | 0.522 | 0.881 | 0.561 | 0.47 | 0.424 | 0.309 | 0.222 | 1.24 | 1.05 | 0.697 | 0.566 | 0.346
HOP-62 | 0.726 | 0.84 | 0.896 | 0.909 | 0.424 | 0.542 | 0.856 | 0.655 | 0.271 | 0.405 | 0.842 | 0.482 | 0.363 | 0.12 | 0.165 | 0.741 | 0.977 | 0.473 | 0.327 | 0.176
CAL-12T | 0.941 | 0.92 | 0.909 | 1.17 | 0.831 | 0.833 | 0.951 | 0.74 | 0.577 | 0.337 | 0.623 | 0.512 | 0.252 | 0.117 | 0.134 | 0.655 | 0.744 | 0.357 | 0.261 | 0.32
NCI-H1755 | 1.05 | 1.03 | 0.972 | 0.99 | 0.877 | 0.806 | 0.793 | 0.735 | 0.722 | 0.667 | 0.603 | 0.547 | 0.411 | 0.273 | 0.252 | 0.412 | 0.546 | 0.344 | 0.365 | 0.274
